No end group written: not given here.
Columns and labels:
[1] = system: insulin-stimulated glycogen synthesis in soleus muscle; assay: rat soleus muscle assay; format: cell-based; conditions: for amylin agonist activity as measured by the soleus muscle assay: inhibition of insulin-stimulated glycogen synthesis; for amylin antagonist activity in the soleus muscle assay: resumption of insulin-stimulated glycogen synthesis in the presence of 100 nM rat amylin
Description: Several assays have been developed to measure amylin activity and to evaluate new compounds. A receptor binding assay as described herein may be used to screen for or to identify compounds which bind to amylin receptors and which may, therefore, be candidate amylin agonists and antagonists. The rat soleus muscle assay may be used as a secondary procedure to screen for or to evaluate and differentiate between amylin agonists and amylin antagonists. In the soleus muscle assay, amylin and amylin agonists inhibit insulin-stimulated glycogenesis. Amylin antagonists counteract this amylin inhibition which results in the recovery of insulin-stimulated glycogenesis.
Assays of biological activity of amylin preparations in the soleus muscle are performed using previously described methods (Leighton, B. and Cooper, G. J. S. (1988) Nature 335: 632-635; Cooper, G. J. S., Leighton, B., Dimitriadis, G. D., Parry-Billings, M., Kowalchuk, J. M., Howland, K., Rothbard, J. B., Willis, A. C. and Reid, K. B. M. (1988) Proc. Natl. Acad. Sci. USA 85: 7763-7766.) In summary, amylin agonist activity is assessed by measuring the inhibition of insulin-stimulated glycogen synthesis in soleus muscle in response to an amylin agonist. Amylin antagonist activity is assessed by measuring the resumption of insulin-stimulated glycogen synthesis in the presence of 100 nM rat amylin and an amylin antagonist. Concentrations of peptide dissolved in carrier-free buffers are determined by quantitative amino acid analysis, as described therein. The ability of compounds to act as antagonists in this assay is determined by measuring IC50 values. Standard errors are determined by fitting of sigmoidal dose response curves using a four parameter logistic equation (De Lean, A., Munson, P. J., Guardabasso, V. and Rodbard, D. (1988) ALLFIT, Version 2.7, National Institute of Child Health and Human Development, N.I.H. Bethesda, Md., 1 diskette).

[2] = system: insulin resistance caused by administered amylin; assay: infusion into rats, reversal of amylin-induced insulin resistance; format: in vivo; conditions: infusions into rats
Description: A number of amylin antagonists have been characterized using these biological assays. The N-terminally deleted peptides ^8-37 Peptide A, ^8-37 Peptide B and ^8-32 Peptide C, were all found to compete with amylin in the receptor binding assay. […] ID. NO. 195]; ^9-37 Peptide B [SEQ. ID. NO. 27]; ^11-37 Peptide B [SEQ. ID. NO. 29]; ^18-37 Peptide B [SEQ. ID. NO. 36]; ^26 Asp^27 Val^29 Ala^8-32 Peptide C [SEQ. ID. NO. 196]; ^30 Asn^32 Tyr^8-32 Peptide C [SEQ. ID. NO. 197]; Ac-^9-32Peptide C [SEQ. ID. NO. 48]; Ac-^30 Asn^32 Tyr^9-32 Peptide C [SEQ. ID. NO. 198]; ^9-23 Peptide C^29-37 Peptide A [SEQ. ID. NO. 199]; Ac-^9-23 Peptide C^29-37 Peptide A; Adm-^9-23 Peptide C^29-37 Peptide A; Ac-^11 Arg^15 Leu^18 Arg^30 Asn^32 Tyr^9-32 Peptide C [SEQ. ID. NO. 200]; Ac-^11 Arg^18 Arg^30 Asn^32 Tyr^9-32 Peptide C [SEQ. ID. NO. 201]; Ac-^18 Arg^30 Asn^32 Tyr^9-32 Peptide C [SEQ. ID. NO. 202]. Infusions of ^8-37 Peptide B [SEQ. ID. NO. 26], ^8-32 Peptide C [SEQ. ID. NO. 47], and Ac-^11 Arg ^18 Arg^30 […] Tyr^9-32 Peptide C [SEQ. ID. NO.

Substance	amylin agonist activity as measured by the soleus muscle assay [1]	amylin antagonist activity in the soleus muscle assay [1]	reversal of insulin resistance caused by administered amylin [2]
VLGKLSQELHKLQTYPRTNTGSGTP-NH2 [^8-32 Peptide C]	negligible agonist activity	act as amylin antagonists	reverse the insulin resistance caused by administered amylin
^8-37 Peptide B (VTHRLAGLLSRSGGVVKNNFVPTNVGSKAF) [ID; NO; 26]	negligible agonist activity	act as amylin antagonists	reverse the insulin resistance caused by administered amylin
